Source: US7674813B2, “Heterocyclic sulfonamide inhibitors of beta amyloid production containing an azole” (Wyeth, priority 2004, dated 2010)

Columns and labels:
Format in all cases: cell-based
beta amyloid 40 = assay: Aβ40/42 ELISA Assay (Aβ40); settings: Cricetulus griseus; CHO cells carrying the APP-REP-NL plasmid, 22 hours, sandwich ELISA
Method: (§1) Compounds are diluted from DMSO stocks to 2 μM and below in a cell culture medium. Compounds are then applied to CHO cells carrying the APP-REP-NL plasmid [Sudhir et. al, J. Biolog. Chem. 267:25602-25608 (1992)] for a period of 22 hours. After the conditioning period, medium is collected, diluted in assay buffer containing protein, and samples, controls, and synthetic peptide standards are incubated on a prepared ELISA plate. Using a sandwich ELISA with antibodies specifically directed against the carboxyl terminus of beta amyloid 40 or 42 (analogous to the method reported by Haugabook et al., J. Neurosci. Methods 108:171-179 (2001) but using goat anti-mouse IgG1 (source: Southern Biotech) as the anchor, 6E10 as the capture antibody (Source: SENETEK), rabbit antiAβ40 and antiAβ42 (source: QCB) and APL-donkey anti-rabbit IgG (H+L, source: Southern Biotech) as the detection antibody), the effect of the compound treatment on the cellular production of extracellular beta amyloid is quantified. Cells treated with compound are subsequently incubated in cell culture medium containing MTS-formazan. After a short incubation period, MTS/medium containing plates are read in a spectrophotometer to determine the extent to which compound toxicity affected the cell's metabolism and ability to synthesize beta amyloid.
(§2) A. Test Samples: compound samples are supplied as 20 mM stock solutions in a 100% DMSO solution.
(§3) B. APP-REP-NL cells: Qualified cell lines are carried from week to week using 1:100 dilutions and are cultured in DMEM supplemented with 1× antibiotic/antimycotic, 200 ug/ml of G418 antibiotic, and 10% certified fetal calf serum. Cells are also banked in liquid nitrogen. Periodically, beta amyloid production is assessed, and cells are either kept in culture or replaced with progenitors at full expression.
(§4) C. Antibodies: From certified lots that have already been qualified in this assay. Antibodies are stored in small frozen aliquots at −80° C. that are thawed and used.
(§5) A compound is considered active if it has an EC50 for Aβ40 reduction of <100 μM and no toxicity at doses in the vicinity of the EC50.

[1] = tested on: amyloid precursor protein (APP) proteolysis; assay: Repressor Release Assay (RRA); parameters: key to RRA data (footnote symbols): **: Inactive due to toxicity; however, this compound, at 3-4 μM, reduces Aβ levels by 50% in CHO cells transfected with human APP695 as measured by ELISA without exhibiting toxicity.; ***: Inactive; however, this compound, at 1-4 μM, reduces Aβ levels by 50% in CHO cells transfected with human APP695 as measured by ELISA without exhibiting toxicity; settings: transfected CHO-K1 cells; for fold induction at 20 µg/mL: Cricetulus griseus, CHO-K1, all compounds tested at 20 μg/mL, luciferase activity over diluent control, read-out: RRA data (Fold increase of APPI)
Method: The beta amyloid inhibitory activity of many of the compounds of the present invention has been determined using the Repressor Release Assay (RRA). See, Table 3 below. A compound is considered active in RRA if it leads to at least a 1.5 fold increase in luciferase activity at 20 μg/mL and is non-toxic.
The compound is considered active in RRA if it leads to at least a 1.5 fold increase in APPI as measured by an increase in luciferase activity at 20 μg/mL and is non-toxic. Shuey, D. J., Sheiffele, P., Jones, D., Cockett, M. I., and Quinet, E. M. (1999) Repressor release: a useful tool for monitoring amyloid precursor protein (APP) proteolysis in mammalian cells. Society for Neuroscience Abstracts, Vol. 25, 29th Annual Meeting of Society for Neuroscience, Miami Beach, Fla., Oct. 23-28, 1999.
CHO—K1 cells are cultured in whole DMEM media (DMEM—High Glucose with 10% fetal bovine serum, 1% Non-essential Amino Acids, and 1% Penicillin-Streptomycin) at 37° C. with 5% CO2. Two million cells are plated into 10-cm dishes 24 hrs prior to transfection.
Transient transfections are completed as recommended by Gibco BRL using their Lipofectamine Plus system. First, 6 μg of pRSVO-luc and 6 μg of APP-lacI construct DNA are added to 460 μL Opti-Mem transfection media and incubated with 30 μL Plus reagent for 15 minutes. Then, a lipid mixture of 40 μL Lipofectamine reagent and 460 μL Opti-Mem transfection media is incubated with the DNA-Plus reagent mixture for 15 minutes. During the DNA-lipid incubation, the CHO—K1 cells are washed once and covered in 5.0 mL DMEM media without Penicillin-Streptomycin. The DNA-lipid preparation is then layered onto these cells and incubated at 37° C. overnight.
One and one half million transfected cells per well (100 μL total volume) are plated into sterile, opaque Packard 96-well Cultur-Plates in clear DMEM whole media (DMEM—without phenol red) and incubated at 37° C. with 5% CO2 for 3-5 hours.
Compounds are diluted using two different protocols; one protocol is used for compounds supplied neat (weighed powder in vial) and the other protocol is used for compounds supplied in solution (20 mM in DMSO in 96-well plates). For both protocols, 25 mM Hepes and 25 mM Hepes/1% DMSO are prepared fresh to be used as diluent. The Hepes/DMSO is used as the diluent control on all experimental plates.
The following Table 1 depicts the steps for compound dilution (the last step is the addition of compound to cells/media in tissue culture plate):
Because some compounds arrive in 96-well format at 20 mM, the following Table 2 represents the protocol for their dilution (an average molecular weight of these compounds was used to calculate these dilutions and as above, the last step is the addition of compound to cells/media in tissue culture plate):
Once compounds are diluted, they are applied in duplicate on cells in tissue culture plates (prepared above). Cells are incubated with compound at 37° C. with 5% CO2 for an additional 36-48 hours.
Luciferase assays (LucLite reagent, Packard) are performed and are read on a Packard TopCount instrument. Media is removed from each 96-well plate and replaced with 100 μL PBS per well (with Mg^2+ and Ca^2+). An equal volume (100 μL) of the LucLite lysis/substrate buffer is added to each well and the plates are sealed and mixed in the dark on a rotary shaker for 15-30 minutes at room temperature. Luciferase readings are then taken on the TopCount instrument. Measurements are expressed as relative light units (RLU) and are calculated and analyzed in MS Excel as follows:
Fold Increase: amount of luciferase activity (measured in relative light units) over diluent control.
SEM: standard error of the mean for fold increase.
Activity: A compound is considered active if it results in at least a 1.5 fold increase in luciferase activity at 20 μg/mL.
Toxicity: determined by loss of signal (<0.75 fold increase).

beta amyloid 42 = assay: Aβ40/42 ELISA Assay (Aβ42); settings: CHO cells carrying the APP-REP-NL plasmid, 22 hours, sandwich ELISA; for EC50: Cricetulus griseus
Method: as §1, §2, §3, §4, §5

EC50 (beta amyloid 40)	EC50 (beta amyloid 42)	Structure (SMILES)	fold induction at 20 µg/mL [1]	Effect on Aβ42 production (beta amyloid 42)	RRA data (footnote symbols) ([1]; tested at 20 μg/mL)
4 µM	5.1 µM	CC(C)C(NS(=O)(=O)c1ccc(Cl)s1)c1ccnn1-c1ccc(F)cc1 (racemic) [Example 15, 5-Chloro-N-{1-[1-(4-fluorophenyl)-1H-pyrazol-5-yl]-2-methylpropyl}thiophene-2-sulfonamide]	2.8		
21.9 µM		CC(C)[C@@H](NS(=O)(=O)c1ccc(Cl)s1)c1ccnn1-c1ccc(F)cc1 (stereo in doubt) [Example 41, 5-Chloro-N-{(1R)-1-[1-(4-fluorophenyl)-1H-pyrazol-5-yl]-2-methylpropyl}thiophene-2-sulfonamide]		increase	
1 µM	1 µM	CC(C)[C@H](NS(=O)(=O)c1ccc(Cl)s1)c1ccnn1-c1ccc(F)cc1 (stereo in doubt) [Example 42, 5-Chloro-N-{(1S)-1-[1-(4-fluorophenyl)-1H-pyrazol-5-yl]-2-methylpropyl}thiophene-2-sulfonamide]			
1 µM	1 µM	CCC(CC)C(NS(=O)(=O)c1ccc(Cl)s1)c1ccnn1Cc1ccc(OC)cc1 (centres unmarked) [Example 1, 5-Chloro-N-{2-ethyl-1-[1-(4-methoxybenzyl)-1H-pyrazol-5-yl]butyl}thiophene-2-sulfonamide]	7.8		
6.4 µM	13 µM	CCC(CC)C(NS(=O)(=O)c1ccc(Cl)cc1)c1ccnn1Cc1ccc(OC)cc1 (centres unmarked) [Example 2, 4-Chloro-N-{2-ethyl-1-[1-(4-methoxybenzyl)-1H-pyrazol-5-yl]butyl}benzenesulfonamide]	11.3		
6.8 µM	10 µM	CCC(CC)C(NS(=O)(=O)c1ccc(Br)cc1)c1ccnn1Cc1ccc(OC)cc1 (centres unmarked) [Example 3, 4-Bromo-N-{2-ethyl-1-[1-(4-methoxybenzyl)-1H-pyrazol-5-yl]butyl}benzenesulfonamide]	5.9		
1.8 µM	1.3 µM	COc1ccc(Cn2nccc2C(C)NS(=O)(=O)c2ccc(Cl)s2)cc1 (centres unmarked) [Example 4, 5-Chloro-N-{1-[1-(4-methoxybenzyl)-1H-pyrazol-5-yl]ethyl}thiophene-2-sulfonamide]	2.3		
1.1 µM	0.9 µM	COc1ccc(Cn2nccc2C(NS(=O)(=O)c2ccc(Cl)s2)C(C)C)cc1 (centres unmarked) [Example 5, 5-Chloro-N-{1-[1-(4-methoxybenzyl)-1H-pyrazol-5-yl]-2-methylpropyl}thiophene-2-sulfonamide]	3.5		
1.5 µM	1.4 µM	CCCC(NS(=O)(=O)c1ccc(Cl)s1)c1ccnn1Cc1ccc(OC)cc1 (centres unmarked) [Example 6, 5-Chloro-N-{1-[1-(4-methoxybenzyl)-1H-pyrazol-5-yl]butyl}thiophene-2-sulfonamide]	4.7		
2.4 µM	2.7 µM	CCCCn1nccc1C(NS(=O)(=O)c1ccc(Cl)s1)C(CC)CC (centres unmarked) [Example 7, N-[1-(1-Butyl-1H-pyrazol-5-yl)-2-ethylbutyl]-5-chlorothiophene-2-sulfonamide]	5.4		
4 µM	10.1 µM	CCC(CC)C(NS(=O)(=O)c1ccc(Cl)s1)c1ccnn1-c1ccc(OC)cc1 (centres unmarked) [Example 10, 5-Chloro-N-{2-ethyl-1-[1-(4-methoxyphenyl)-1H-pyrazol-5-yl]butyl}thiophene-2-sulfonamide]	1.7		
1 µM	2.7 µM	CCC(CC)C(NS(=O)(=O)c1ccc(Cl)s1)c1ccnn1-c1ccc(O)cc1 (centres unmarked) [Example 11, 5-Chloro-N-{2-ethyl-1-[1-(4-hydroxyphenyl)-1H-pyrazol-5-yl]butyl}thiophene-2-sulfonamide]	3		
1.4 µM	3.3 µM	CC(C)C(NS(=O)(=O)c1ccc(Cl)s1)c1ccnn1-c1ccccc1 (centres unmarked) [Example 12, 5-Chloro-N-[2-methyl-1-(1-phenyl-1H-pyrazol-5-yl)propyl]thiophene-2-sulfonamide]			***
4.8 µM	5.1 µM	CC(NS(=O)(=O)c1ccc(Cl)s1)c1ccnn1-c1ccccc1 (centres unmarked) [Example 13, 5-Chloro-N-[1-(1-phenyl-1H-pyrazol-5-yl)ethyl]thiophene-2-sulfonamide]	6.4		
1.2 µM	1.2 µM	Cc1ccc(-n2nccc2C(NS(=O)(=O)c2ccc(Cl)s2)C(C)C)cc1 (centres unmarked) [Example 14, 5-Chloro-N-{2-methyl-1-[1-(4-methylphenyl)-1H-pyrazol-5-yl]propyl}thiophene-2-sulfonamide]	17.7		
4.2 µM	10 µM	CCC(CC)C(NS(=O)(=O)c1ccc(Cl)s1)c1ccnn1-c1ccccc1 (centres unmarked) [Example 17, 5-Chloro-N-[2-ethyl-1-(1-phenyl-1H-pyrazol-5-yl)butyl]thiophene-2-sulfonamide]			
		CCC(CC)C(NS(=O)(=O)c1ccc(Cl)s1)c1ncnn1Cc1ccc(F)cc1 (centres unmarked) [Example 19, 5-Chloro-N-{2-ethyl-1-[1-(4-fluorobenzyl)-1H-1,2,4-triazol-5-yl]butyl}thiophene-2-sulfonamide]	3.9		
19.4 µM		CCC(CC)C(NS(=O)(=O)c1ccc(Cl)s1)c1nccn1Cc1ccccc1 (centres unmarked) [Example 28, N-[1-(1-Benzyl-1H-imidazol-2-yl)-2-ethylbutyl]-5-chlorothiophene-2-sulfonamide]	1.5		
12.8 µM	67.2 µM	O=S(=O)(NC(Cc1ccccc1)c1ccnn1-c1ccc(F)cc1)c1ccc(Cl)s1 (centres unmarked) [Example 35, 5-Chloro-N-{1-[1-(4-fluorophenyl)-1H-pyrazol-5-yl]-2-phenylethyl}thiophene-2-sulfonamide]			
